Data from publication PMC11277489, “Novel Piperazine Derivatives of Vindoline as Anticancer Agents” (International Journal of Molecular Sciences, 2024).
Read-outs that look alike come from different tables or passages of the source.

Experiments:
[1] = tested on: non-tumor Chinese hamster ovary (CHO) cells; experiment: CellTiter-Glo Luminescent Cell Viability Assay on non-tumor CHO cells; type: cell-based; details: for effect on CHO cell viability (in words) / IC50: 48 h; for effect on CHO cell viability (in words): 10^−7 and 10^−6 M; for IC50: read-out: IC50 (estimated)
Procedure: (§1) Three promising conjugates (20, 23, 25) were selected for testing on the non-tumor CHO cell line in the CellTiter-Glo Luminescent Cell Viability Assay (Promega Corporation, Madison, WI, USA) to reveal their selectivity for cancer cells.
(§2) Compounds 20, 23, and 25 were dissolved in DMSO in 10 mM stock solutions and stored frozen until use. CHO cells were cultured in complete Dulbecco’s Modified Eagle’s Medium (DMEM, low glucose (1 g/L)) supplemented with 10% fetal bovine serum, 1% Gibco GlutaMAX-I (100×) solution, 1% Gibco MEM non-essential amino acid solution (100×), and 0.1% penicillin–streptomycin mixture. Cells were grown in T-25 size cell culture flasks under standard cell culture conditions (37 °C, 5% CO2) and passaged at 70–80% confluency. The assay was performed according to the manufacturer’s protocol, as described previously. Briefly, CHO cells were seeded to opaque 96-well culture plates at a density of 5000 cells/100 µL complete DMEM/well. The side rows and columns of the plate were filled with sterile phosphate-buffer saline to avoid an edge effect. Following overnight incubation (37 °C, 5% CO2), the culture medium was aspirated from the cells and replaced with increasing concentrations of drug solutions (10^−5, 10^−6, and 10^−7 M) diluted from the stock solution in sterile complete DMEM (100 µL/well). Untreated cells served as a control, and complete DMEM served as a luminescent background control. Drug-treated cells were incubated for 48 h (37 °C, 5% CO2), and then equilibrated to room temperature in 30 min. At the end of the incubation period, 100 µL of room temperature CellTiter-Glo reagent was added to each well, and the plates were placed on an orbital shaker for 2 min and incubated for additional 10 min at room temperature without shaking. The luminescent signal was measured using an EnSpire AlphaLisa microplate reader (Perkin Elmer, Inc., Waltham, MA, USA). The normalized luminescent values of the treated cells were compared to those of the untreated control. The statistical analysis and calculation of IC50 values were performed in GraphPad Prism 8.0.1 (GraphPad, La Jolla, CA, USA). Estimated IC50 values were calculated by using non-linear regression by fitting a sigmoidal dose–response curve to the data points.

[2] = as above; type: cell-based, Chinese hamster; details: Chinese hamster, CHO cells, 48 h, 10^−5 M, mean ± SD, n = 9
Procedure: as §1, §2

HeLa cell line = tested on: HeLa cell line; parameters: method as in PMID 32102414; details: cited from earlier work
[3] = Cricetulus griseus, CHO cells, roughly estimated from three concentrations
[4] = CHO cells (non-tumor Chinese hamster ovary cell line)

| Compound | effect on CHO cell viability (in words) ([1]; CHO cells) | EC50 ([1]; Cricetulus griseus, CHO, non-tumor cells, read-out: half-maximal effective concentration (EC50)) [µM] | IC50 [1, 3] [µM] | viability at 48 h [2, 4] [%] | IC50 ([1]; Cricetulus griseus, CHO) [µM] | viability at 48 h [2] [%] | IC50 (HeLa cell line) [µM] |
| --- | --- | --- | --- | --- | --- | --- | --- |
| CC[C@]12C=CCN3CC[C@@]4(c5ccc(OC)cc5N(C)[C@H]4[C@@](O)(C(=O)OC)[C@@H]1OC(=O)CCCN1CCN(Cc4ccc(C(F)(F)F)cc4)CC1)[C@@H]32 [Compound 23] | did not affect CHO cell viability | 10.8 | ~10.8 | 52.8 ± 7.25 | – | – | – |
| CC[C@]12C=CCN3CC[C@@]4(c5ccc(OC)cc5N(C)[C@H]4[C@@](O)(C(=O)OC)[C@@H]1OC(=O)CCCN1CCN(C(c4ccc(F)cc4)c4ccc(F)cc4)CC1)[C@@H]32 [Compound 25] | did not affect CHO cell viability | – | – | – | ~6.64 | 33.5 ± 19.6 | – |
| CCC12C=CCN3CCC4(c5ccc(OC)cc5N(C)C4C(O)(C(=O)OC)C1OC(=O)CCCN1CCN(C)CC1)C32 (centres unmarked) [Compound 3] | – | – | – | – | – | – | 9.36 |
| CCC12C=CCN3CCC4(c5cc(NC(=O)CN6CCN(C(c7ccc(F)cc7)c7ccc(F)cc7)CC6)c(OC)cc5N(C)C4C(O)(C(=O)OC)C1OC(C)=O)C32 (centres unmarked) [Compound 20] | did not affect CHO cell viability | – | ~2.54 | 1.25 ± 0.77 | – | – | – |
